From US8519124B2, “Chemokine receptor antagonists and use thereof” (Ono Pharmaceutical Co., Ltd., priority 2005, dated 2013)

Assays:
[1] = tested on: DOPA liposome (artificial lipid membrane); test: Artificial lipid membrane binding by using Biacore S51 system; conditions: 50 μM compound; for Judgement (phospholipidosis inductive effect): DOPA liposome; for Corrected value of binding response (RU): DOPA liposome on Sensor Chip L1, 37° C., PBS/5% DMSO (pH 7.4 or PH 6.0)
Experimental: Artificial Lipid Membrane Binding Account by Using Biacore (Registered Trademark) S51 System
10 mM of 1,2-Dioleoyl-sn-Glycero-3-Phosphate, Monosodium Salt (hereinafter abbreviated as DOPA) chloroform solution was evaporated to dryness by means of an aspirator, and 0.6 mL of PBS/5% dimethyl sulfoxide (hereinafter abbreviated as DMSO) was added. The chloroform solution was fully suspended by means of a vortex mixer, and the freezing and thawing were repeated for 5 times. Liposome was created by means of a liposome adjustment instrument (manufactured by Avestin Inc.) and 2 syringes, and was diluted to 0.5 mM with PBS/5% DMSO just prior to immobilization.
(ii) Measurement Compound Adjustment
The 38 μL of 1×PBS is added to 2 μL DMSO solution (10 mM), and further the 360 μL 1×PBS/5% DMSO was added; the 50 μM of final concentration in the 1×PBS/5% DMSO was adjusted and measured.
All of the following analysis used Biacore® S51 system; the measurement conditions were set by Biacore S51 Control Soft.
The measurement temperature was set to be 37° C., and the 1×PBS/5% DMSO (pH 7.4 or PH 6.0) was used as a buffer. Series S Sensor Chip L1 was used for a sensor chip. The DOPA was immobilized in one of the measuring spots on the sensor surface, and the central spot was used as a reference.
Immobilization of liposome was conducted at a flow rate of 10 μL/min for about 3 minutes; then the compound was added at a flow rate of 30 μL/min and the interaction was measured. The measurement conditions are as follows:
Assay buffer: PBS/5% DMSO (pH 7.4 or PH 6.0)
Measurement temperature: 37° C.
Sensor chip: Series S Sensor Chip L1
Flow rate: 10 μL/min at the time of the liposome immobilization; 30 μL/min at the time of the measurement of interaction with the compound
Regeneration: 20 mM CHAPS (3-[(3-Cholamidopropyl)dimethylammonio]-1-propanesulfonate), Isopropanol/50 mM sodium hydroxide solution=40/60 (volume ratio) mixture (60 seconds)
The data processing was conducted by means of method of Abdiche et al. (Analytical biochemistry, 328, 233-243 (2004)) by using Biacore S51 Evaluation Soft.
Regarding the value of binding response (RU) in which the value of reference was subtracted, it was divided by a sample molecular weight after minute error of the DMSO concentration included in the sample solution was corrected. In addition, the value obtained here was divided by an amount of capture at the time of the cycle because the value obtained here was proportional to the amount of capture of the liposome; further, the value was multiplied by a million to be considered as a corrected value (Corrected value=1000000)×RU (test compound)/molecular quantity (test compound) RU (liposome)).
Propranolol, Amiodarone, Desipramine, Imipramine and Procaine were added as the controls, and it was recognized that the variation of the binding response was within ca. 10 to 15%.
The compound, in which a value of the binding response after the correction was equal to or more than 150, was determined as positive.

CXCR4 = target: T1, CXCR4 (Homo sapiens, UniProt P61073); test: Study for inhibition of binding human SDF-1 to CEM cells (125I-SDF-1); conditions: 125I-SDF-1 binding to CEM cells
T1 construct: a human T cell strain in which CXCR4 is known to be expressed; endogenous in cells; host or cells: CEM cells (human T cell strain)
T1 sequence (P61073 whole entry): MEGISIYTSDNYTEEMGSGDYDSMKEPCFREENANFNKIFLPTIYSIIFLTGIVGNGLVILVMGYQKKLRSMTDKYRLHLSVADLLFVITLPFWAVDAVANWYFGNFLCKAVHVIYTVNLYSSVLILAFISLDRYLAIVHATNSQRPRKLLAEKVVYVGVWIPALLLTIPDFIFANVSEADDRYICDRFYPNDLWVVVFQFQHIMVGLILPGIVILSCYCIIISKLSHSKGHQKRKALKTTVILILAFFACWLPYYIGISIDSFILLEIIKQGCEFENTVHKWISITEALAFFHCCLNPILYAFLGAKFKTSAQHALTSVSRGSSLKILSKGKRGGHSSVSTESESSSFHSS
Source text: Specifically, as a system of screening a compound that inhibits the binding between SDF-1 and CXCR4, for example a system of measuring the binding between iodine-labeled SDF-1 and a human T cell strain in which CXCR4 is known to be expressed is operable. The identical idea is possible since macrophage (R5) HIV and RANTES, MIP-1α, and MIP-1β all bind to CCR5.
Study for Inhibition of Binding Human SDF-1 to CEM Cells
To human T cell strain CEM cells in a binding buffer (containing HEPES and BSA), the test compound and ^125I-SDF-1 (NEN) were added and the mixture was incubated at 4° C. for 60 minutes. The reacted CEM cells were rapidly filtrated with a GF/B membrane filter plate (Packard) to adsorb. The plate was washed with PBS three times and then dried. Microscint+20 (Packard) was added thereto. An amount of the radioactivity bound to the CEM cells was measured using Top Count (Packard) and inhibition (%) of the test compound was calculated according to the following equation: Inhibition={(Et−Ea)/(Et−Ec)}×100
Et: amount of radioactivity when the test compound is not added,
Ec: amount of radioactivity when non-radioactive SDF-1 (Pepro Tech) is added in an amount of 1000 times as much as ^125I-SDF-1 as a test compound, and
Ea: amount of radioactivity when the test compound is added.

| SMILES | Judgement (phospholipidosis inductive effect) [1] | Corrected value of binding response (RU) [1] | IC50 (CXCR4) |
| --- | --- | --- | --- |
| CC(C)(C)CN1CCC2(CC1)CCN(C(=O)Cc1ccc(CN(Cc3ncc[nH]3)Cc3ncc[nH]3)cc1)C2 [Example 40 (68), 1-(4-{2-[8-(2,2-dimethylpropyl)-2,8-diazaspiro[4.5]dec-2-yl]-2-oxoethyl}phenyl)-N,N-bis(1H-imidazol-2-ylmethyl)methanamine] | negative | 77.6 RU |  |
| O=C(CC(=O)N1CCC2(CCN(C3CCCCC3)CC2)C1)N1CCC(N(Cc2ncc[nH]2)Cc2ncc[nH]2)CC1 [Example 65 (4), 1-[3-(8-cyclohexyl-2,8-diazaspiro[4.5]dec-2-yl)-3-oxopropanoyl]-N,N-bis(1H-imidazol-2-ylmethyl)-4-piperidinamine] | negative | 36.0 RU |  |
| CC(C)CN1CCC2(CCN(Cc3ccc(C(=O)N(Cc4ncc[nH]4)Cc4ncc[nH]4)cc3)CC2)C1 [Example 8 (113), N,N-bis(1H-imidazol-2-ylmethyl)-4-[(2-isobutyl-2,8-diazaspiro[4.5]dec-8-yl)methyl]benzamide] | negative | 66.6 RU | 15 nM |
| CCC(CC)N1CCC2(CCN(C(=O)c3ccc(CN(Cc4ncc[nH]4)Cc4nccn4C)cc3)C2)CC1 [Example 40 (72), 1-(4-{[8-(1-ethylpropyl)-2,8-diazaspiro[4.5]dec-2-yl]carbonyl}phenyl)-N-(1H-imidazol-2-ylmethyl)-N-[(1-methyl-1H-imidazol-2-yl)methyl]methanamine] | negative | 72.0 RU |  |
